From ChEMBL document CHEMBL4270577, “Synthesis, anticancer activity and molecular modeling studies of 1,2,4-triazole derivatives as EGFR inhibitors” (Eur J Med Chem, 2018)

What was measured:
K562 = experiment: Cytotoxicity against human K562 cells incubated for 48 hrs by sulforhodamine B assay; format: functional; settings: K562, 48 h
MCF7 = experiment: Cytotoxicity against human MCF7 cells incubated for 48 hrs by sulforhodamine B assay; format: functional; settings: MCF7, 48 h
NCI-H460 = experiment: Cytotoxicity against human NCI-H460 cells incubated for 48 hrs by sulforhodamine B assay; format: functional; settings: NCI-H460, 48 h
SW-620 = experiment: Cytotoxicity against human SW620 cells incubated for 48 hrs by sulforhodamine B assay; format: functional; settings: SW-620, 48 h
ACHN = experiment: Cytotoxicity against human ACHN cells incubated for 48 hrs by sulforhodamine B assay; format: functional
NCI-H522 = experiment: Cytotoxicity against human NCI-H522 cells incubated for 48 hrs by sulforhodamine B assay; format: functional; settings: NCI-H522, 48 h
SK-MEL-28 = experiment: Cytotoxicity against human SK-MEL-28 cells incubated for 48 hrs by sulforhodamine B assay; format: functional; settings: SK-MEL-28, 48 h
SNB-19 = experiment: Cytotoxicity against human SNB19 cells incubated for 48 hrs by sulforhodamine B assay; format: functional; settings: SNB-19, 48 h
NCI-H322M = experiment: Cytotoxicity against human NCI-H322M cells incubated for 48 hrs by sulforhodamine B assay; format: functional
SF-539 = experiment: Cytotoxicity against human SF539 cells incubated for 48 hrs by sulforhodamine B assay; format: functional; settings: SF-539, 48 h
A549 [1] = experiment: Induction of apoptosis in human A549 cells assessed as viable cells at 1.4 uM after 24 hrs by Annexin V/propidium iodide staining based flow cytometric analysis (reference value: 98.03%); format: functional; settings: A549, 24 h, read-out: Activity
SR = experiment: Cytotoxicity against human SR cells incubated for 48 hrs by sulforhodamine B assay; format: functional
RXF 393 = experiment: Cytotoxicity against human RXF393 cells incubated for 48 hrs by sulforhodamine B assay; format: functional; settings: RXF 393, 48 h
DU-145 = experiment: Cytotoxicity against human DU145 cells incubated for 48 hrs by sulforhodamine B assay; format: functional; settings: DU-145, 48 h
OVCAR-3 = experiment: Cytotoxicity against human OVCAR3 cells incubated for 48 hrs by sulforhodamine B assay; format: functional; settings: OVCAR-3, 48 h
UACC-62 = experiment: Cytotoxicity against human UACC62 cells incubated for 48 hrs by sulforhodamine B assay; format: functional; settings: UACC-62, 48 h
OVCAR-5 = experiment: Growth inhibition of human OVCAR5 cells at 10 uM incubated for 48 hrs by sulforhodamine B assay relative to control; format: functional; settings: OVCAR-5, 48 h, read-out: GI
MDA-MB-435 = experiment: Cytotoxicity against human MDA-MB-435 cells incubated for 48 hrs by sulforhodamine B assay; format: functional; settings: MDA-MB-435, 48 h
Tubulin (Homo sapiens) = Tubulin (Homo sapiens) (UniProt P68371+Q9H4B7+P0DPH7+P68366+Q13509+Q71U36+P04350+Q3ZCM7+P07437+P68363+Q9BQE3+Q6PEY2+Q13885+Q9BVA1+Q9BUF5); experiment: Inhibition of tubulin (unknown origin) polymerization assessed as polymerized tubulin level at 5 to 25 uM by fluorescence assay; format: protein-complex assay
MOLT-4 = experiment: Cytotoxicity against human MOLT4 cells incubated for 48 hrs by sulforhodamine B assay; format: functional; settings: MOLT-4, 48 h
SNB-75 = experiment: Cytotoxicity against human SNB75 cells incubated for 48 hrs by sulforhodamine B assay; format: functional; settings: SNB-75, 48 h
A549 [2] = experiment: Cell cycle arrest in human A549 cells assessed as accumulation at G1 phase at 1.4 uM after 24 hrs by propidium iodide staining based flow cytometry (reference value: 67.52%); format: functional
IGROV-1 = experiment: Cytotoxicity against human IGROV1 cells incubated for 48 hrs by sulforhodamine B assay; format: functional; settings: IGROV-1, 48 h
786-0 = experiment: Cytotoxicity against human 786-0 cells incubated for 48 hrs by sulforhodamine B assay; format: functional; settings: 786-0, 48 h
PC-3 = experiment: Cytotoxicity against human PC3 cells incubated for 48 hrs by sulforhodamine B assay; format: functional; settings: PC-3, 48 h
SN12C = experiment: Cytotoxicity against human SN12C cells incubated for 48 hrs by sulforhodamine B assay; format: functional
A549 [3] = experiment: Cell cycle arrest in human A549 cells assessed as accumulation at G2 phase at 1.4 uM after 24 hrs by propidium iodide staining based flow cytometry (reference value: 4.19%); format: functional
HCT-15 = experiment: Cytotoxicity against human HCT15 cells incubated for 48 hrs by sulforhodamine B assay; format: functional; settings: HCT-15, 48 h
T47D = experiment: Cytotoxicity against human T47D cells incubated for 48 hrs by sulforhodamine B assay; format: functional
OVCAR-8 = experiment: Cytotoxicity against human OVCAR8 cells incubated for 48 hrs by sulforhodamine B assay; format: functional; settings: OVCAR-8, 48 h
UACC-257 = experiment: Cytotoxicity against human UACC257 cells incubated for 48 hrs by sulforhodamine B assay; format: functional; settings: UACC-257, 48 h
A549 [4] = experiment: Induction of apoptosis in human A549 cells assessed as early apoptotic cells at 1.4 uM after 24 hrs by Annexin V/propidium iodide staining based flow cytometric analysis (reference value: 0.22%); format: functional
[5] = read-out: LC50 (the source's name)

COc1ccc(-c2nc3sc(-c4ccc(Cl)cc4)cn3n2)cc1
GI50 (K562): 29.4 µM | TGI (K562): > 50 µM | CC50 (K562; [5]): > 50 µM | GI50 (MCF7): 2.62 µM | TGI (MCF7): > 50 µM | CC50 (MCF7; [5]): > 50 µM | GI50 (NCI-H460): 1.33 µM | TGI (NCI-H460): 4 µM | CC50 (NCI-H460; [5]): 18.9 µM | GI50 (SW-620): 5.51 µM | TGI (SW-620): > 50 µM | CC50 (SW-620; [5]): > 50 µM | GI50 (ACHN): 0.927 µM | TGI (ACHN): 2.02 µM | CC50 (ACHN; [5]): 4.41 µM | GI50 (NCI-H522): 14.9 µM | TGI (NCI-H522): > 50 µM | CC50 (NCI-H522; [5]): > 50 µM | GI50 (SK-MEL-28): > 50 µM | TGI (SK-MEL-28): > 50 µM | CC50 (SK-MEL-28; [5]): > 50 µM | GI50 (SNB-19): 2.47 µM | TGI (SNB-19): > 50 µM | CC50 (SNB-19; [5]): > 50 µM | GI50 (NCI-H322M): 1.76 µM | TGI (NCI-H322M): > 50 µM | CC50 (NCI-H322M; [5]): > 50 µM | GI50 (SF-539): 1.85 µM | TGI (SF-539): 21.5 µM | CC50 (SF-539; [5]): > 50 µM | viability at 1.4 µM (A549 [1]): 88% | GI50 (SR): 4.53 µM | TGI (SR): 26.1 µM | CC50 (SR; [5]): > 50 µM | GI50 (RXF 393): 5.99 µM | TGI (RXF 393): 39.7 µM | CC50 (RXF 393; [5]): > 50 µM | GI50 (DU-145): > 50 µM | TGI (DU-145): > 50 µM | CC50 (DU-145; [5]): > 50 µM | GI50 (OVCAR-3): 1.72 µM | TGI (OVCAR-3): 7.2 µM | CC50 (OVCAR-3; [5]): > 50 µM | GI50 (UACC-62): 8.24 µM | TGI (UACC-62): > 50 µM | CC50 (UACC-62; [5]): > 50 µM | inhibition of growth at 10 µM (OVCAR-5): 48% | GI50 (MDA-MB-435): > 50 µM | TGI (MDA-MB-435): > 50 µM | CC50 (MDA-MB-435; [5]): > 50 µM | Activity (Tubulin (Homo sapiens)): 1510 a.u. | GI50 (MOLT-4): 11.3 µM | TGI (MOLT-4): > 50 µM | CC50 (MOLT-4; [5]): > 50 µM | GI50 (SNB-75): 1.61 µM | TGI (SNB-75): 6.85 µM | CC50 (SNB-75; [5]): 23.3 µM | Activity (A549 [2]): 58.11% | GI50 (IGROV-1): 1.15 µM | TGI (IGROV-1): 8.13 µM | CC50 (IGROV-1; [5]): > 50 µM | GI50 (786-0): 1.06 µM | TGI (786-0): 2.41 µM | CC50 (786-0; [5]): 6.7 µM | GI50 (PC-3): > 50 µM | TGI (PC-3): > 50 µM | CC50 (PC-3; [5]): > 50 µM | GI50 (SN12C): 1.84 µM | TGI (SN12C): > 50 µM | CC50 (SN12C; [5]): > 50 µM | Activity (A549 [3]): 14.36% | GI50 (HCT-15): 24.5 µM | TGI (HCT-15): > 50 µM | CC50 (HCT-15; [5]): > 50 µM | GI50 (T47D): 3.54 µM | TGI (T47D): > 50 µM | CC50 (T47D; [5]): > 50 µM | GI50 (OVCAR-8): 2.6 µM | TGI (OVCAR-8): > 50 µM | CC50 (OVCAR-8; [5]): > 50 µM | GI50 (UACC-257): > 50 µM | TGI (UACC-257): > 50 µM | CC50 (UACC-257; [5]): > 50 µM | Activity (A549 [4]): 4.23%
